Assay results taken from patent publication US12360121B2, “Assay for detection of an A2E-Saposin B complex” (Syracuse University, priority 2016, dated 2025).

Target: T1, Saposin B (Homo sapiens, UniProt P07602)
T1 sequence (P07602 195-273 limits assumed): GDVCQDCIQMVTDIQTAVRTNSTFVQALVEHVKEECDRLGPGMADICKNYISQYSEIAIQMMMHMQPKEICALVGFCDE
Assay: fluorescence spectroscopy showing binding of A2E by Saposin B
Conditions: fluorescence spectroscopy graphs (FIG. 1A, FIG. 1B)
Source text: FIG. 1A is a first fluorescence spectroscopy graph showing that Saposin B binds A2E;
FIG. 1B is a second fluorescence spectroscopy graphs showing that Saposin B binds A2E;

- binding of A2E by Saposin B: binds
SMILES: CC(C=CC1=C(C)CCCC1(C)C)=CC=CC(C)=Cc1cc(C=CC=C(C)C=CC2=C(C)CCCC2(C)C)cc[n+]1CCO [A2E, N-retinylidene-N-retinylethanolamine]
